In patent publication US5977174A, “Cholinergic compositions and uses thereof” (Neuromedica, Inc., priority 1997, dated 1999):
Read-outs that look alike come from different tables or passages of the source.

Tests used:
Stability = type: physicochemical
Experimental: The compound should be kept at -20° C. under Argon.

Solubility = type: physicochemical; details: for Solubility in solvents: organic solvents, water; for solubility: read-out: Solubility: amount dissolved in 1.0 mL
[1] = models of aging; cited from earlier work
[2] = animal models, clinical trials; cited from earlier work
[3] = cited from earlier work
rat brain = test: Infarct volume after MCA occlusion of rat brain (triphenyltetrazolium chloride staining); type: in vivo; details: 50 mg/kg i.p. at three hours after initiation of the stroke event; n=5
Experimental: Two sets of experiments were carried out. In the first set, rats were administered with 50 mg/kg of DHA-choline i.p. at 30 minutes prior to occlusion of the middle cerebral artery of the left side of the brain using a standard highly reproducible animal model of stroke (Karpiak et al., J. Neurosci Res.30:512-520, 1991). Occlusion of the middle cerebral artery inhibits blood flow to a major portion of the left cortical and subcortical regions of the brain. After a two hour period, the occluded blood vessel was opened to allow reperfusion of the brain, and anesthesia was terminated. Each animal received additional doses of 50 mg/kg of DHA-choline 24 and 48 hours later.
The animals were sacrificed, perfused with formalin fixative, brains were sliced into seven 2 mm thick coronal sections, and stained with triphenyltetrazolium chloride (Watson et al., J. Neurosci. Methods 53:203-208, 1994). In this test, tissue that contains intact mitochondria stains red, whereas dead tissue with damaged mitochondria picks up no stain and remains white. Each unstained area on the left side of a section was measured and compared to the total area of the control non-occluded right side of the same section of the brain. The area of damaged (white) brain tissue cells was calculated as a percent of the intact right side of a section. […] (n=5 per group.) […]

[4] = system: locomotor activity of mice; test: Locomotor activity study (dose-response of DHA-choline-induced locomotor depression); type: in vivo, male Swiss-Webster mice (Hsd:ND4); details: 20 min pretreatment
Experimental: A dose-response study of DHA-choline-induced locomotor depression was conducted using 40 Digiscan locomotor activity testing chambers (40.5×40.5×30.5 cm) housed in sets of two, within sound attenuating chambers. A panel of infrared beams (16 beams) and corresponding photo detectors were located in the horizontal direction along the sides of each activity chamber. A 7.5W incandescent light above each chamber provided dim illumination. Fans provided an 80-dB ambient noise level within the chamber. Separate groups of 8 non-habituated male Swiss-Webster mice (Hsd:ND4, aged 2-3 mo.) were injected via the intraperitoneal route (i.p.) with either vehicle or DHA-choline (0.5, 2.5, 5, 10, 20 or 40 mg/kg), 20 minutes prior to locomotor activity testing. In all studies, the total distance (cm traversed in the horizontal plane) was measured for 2 hours within 10 min periods.
The figures show the dose response data for the locomotor activity (Stewart et al., Psychopharmacol 60:281, 1979) of mice injected with different doses of the compound. The figures show average distance per 10 min as a function of time (FIG. 1) and dose (FIG. 2) 20 minutes following DHA-choline pretreatment. The period 0-30 min was selected for analysis of dose-response data because this is the time period in which DHA-choline produced maximal effects. […]

What does the source list for `CC/C=C\C/C=C\C/C=C\C/C=C\C/C=C\C/C=C\CCC(=O)OCCN(C)C` [2-dimethylaminoethyl docosahexaenoate]?
Stability in air (appearance) (Stability; exposed in the air for several days): turns dark when exposed in the air for several days; Solubility in solvents (Solubility): soluble in EtOAc, Et2 O, CH2 C2, CHCl3, EtOH insoluble in H2 O

For `C[N+](C)(C)CCOP(=O)(O)OP(=O)([O-])OC[C@H]1O[C@@H](n2ccc(N)nc2=O)[C@H](O)[C@@H]1O` [CDP-choline, Cytidine 5'-diphosphocholine], which “effect on memory and learning deficits” value [1] is on record?
Its value is “improves memory and learning deficits”.

And the neuroprotective effect [2]?
The neuroprotective effect was “neuroprotective effect”.

For `CC/C=C\C/C=C\C/C=C\C/C=C\C/C=C\C/C=C\CCC(=O)O` [DHA, cis-docosahexaenoic acid], which “stability in the presence of oxygen” value [3] is on record?
The value was “can be unstable in the presence of oxygen”.

Which results are given for `CC/C=C\C/C=C\C/C=C\C/C=C\C/C=C\C/C=C\CCC(=O)OCC[N+](C)(C)C` [DHA-choline, Docosahexaenoyl Choline Iodide]?
Stability in air (1H NMR analysis) (Stability; exposed in the air for 5 days): had not decomposed; Stability on long exposure to air (Stability; exposed in the air for too long): will decompose; infarct volume relative to vehicle controls (rat brain): approximately 50%; ED50 ([4]; Mus musculus, ip, 0-30 min period, maximal depressant activity = 0 cm/30 min, read-out: ID50 dose producing 1/2 maximal depressant activity (locomotor activity)): 12.9 mg/kg; time period of maximal effects ([4]; i.p.): 0 to 30 min; solubility (Solubility; 1.0 mL ascorbic acid in saline with 0.02 mL detergent): 5500 µg/mL; solubility (Solubility; 10% albumin saline with detergent, 1.0 mL 10% albumin in saline with 0.01 mL detergent): 7800 µg/mL; Solubility in solvents (Solubility): soluble in CH2 Cl2, CHCl3, EtOAc, EtOH insoluble in hexanes, Et2 O
